Where a name gives a salt, the structure may show the parent alone. Read-outs that look alike come from different tables or passages of the source.
Experiments:
[1] = molecular target: PHD2 (Homo sapiens, UniProt Q9GZT9); assay: Competition-based NMR reporter ligand displacement assay ([13C]-2OG / [13C]-CODD); assay type: binding; conditions: 50 μM apo-PHD2, 400 μM Zn(II), 400 μM competitor
Description: For 2OG displacement assays, selective ^1H-^13C 1D-HSQC experiments were conducted at 700 MHz using a Bruker Avance III spectrometer equipped with an inverse TCI cryoprobe optimized for ^1H observation. The CLIP-HSQC sequence was used (without ^13C decoupling). Typical experimental parameters were as follows: acquisition time 0.58 s, relaxation delay 2 s, number of transients 256−1600. The 1JCH was set to 160 Hz. For the selective version of the experiment, a 6.8 ms Q3 180 degree pulse was used, and selective irradiation was applied at the appropriate [^13C] chemical shift. Three millimeter MATCH tubes with a 160 μL final sample volume were used. Solutions were buffered using Tris-D11 50 mM (pH 7.5) dissolved in 90% H2O and 10% D2O. Assays were conducted at 298 K in solutions typically containing 50 μM apo-PHD2, 400 μM Zn(II), 50 μM 1,2,3,4-[^13C]-2OG or [^13C]-labeled CODD (uniformly [^13C]-labeled at proline-564) and 400 μM competitor (except unlabeled CODD competitor used at 800 μM). Selective irradiation was applied at 30.5 ppm for [^13C]-2OG and 24.25 ppm for [^13C]-labeled CODD. Percentage displacement was calculated according to equation: (I−I0)/(Iblank−I0) where I 0 is the intensity of the reporter in the presence of protein but without inhibitor, I is the intensity of the reporter in the presence of protein and inhibitor, and I blank is the intensity of the reporter without protein or inhibitor.
The results reveal that the previously described inhibitor IOX2 displaces 2OG from PHD2 (S3A Fig), consistent with its predicted binding mode. […] Previous crystallographic studies have shown that the HIF substrate can still bind even when the 2OG active site is occupied by some, but not all, inhibitors.

[2] = system: MCF-7; assay: Quantitative HIF1α MSD immunoassay, MCF-7; assay type: cell-based; conditions: Homo sapiens, read-out: HIF1α EC50
Description: Cells were seeded into 96-well cell culture plates (150 μl culture volume) at approximately 60–70% confluency at least 12 h prior to the compound treatment. Half of the culture medium (75 μl/well) were removed and 75 μl/well of medium containing the desired concentrations of compounds were added into cells for 5 h. The cell medium was then removed and the cells were washed once with phosphate buffered saline (PBS), followed by the addition of lysis buffer (20 mM Tris pH 7.4, 450 mM NaCl, 1 mM EDTA, 1 mM EGTA, 0.5% Triton X-100, 1x complete protease inhibitor cocktail and 100 μM DFO). Plates were then left at 4°C with shaking. […] Plates were washed thrice with Tris Wash Buffer, added with 150 μl/well 2X Read Buffer (R92TC, Meso Scale Discovery) before being read with an MSD Sector S600 plate reader (Meso Scale Discovery). Signals generated were normalized to “lysis buffer-only” controls.
To quantify the cellular efficiency of PHD inhibition, we developed an electrochemiluminescence-based assay for the quantification of HIF1α levels using the Meso Scale Discovery (MSD, http://www.mesoscale.com) technology (HIF1α MSD assay), which is based on the capture and detection of HIF1α protein using two specific HIF1α antibodies. […]

[3] = molecular target: T1, JMJD2A (KDM4A) (Homo sapiens, UniProt O75164); assay: KDM AlphaScreen assay, JMJD2A
T1 sequence (O75164 1-1064): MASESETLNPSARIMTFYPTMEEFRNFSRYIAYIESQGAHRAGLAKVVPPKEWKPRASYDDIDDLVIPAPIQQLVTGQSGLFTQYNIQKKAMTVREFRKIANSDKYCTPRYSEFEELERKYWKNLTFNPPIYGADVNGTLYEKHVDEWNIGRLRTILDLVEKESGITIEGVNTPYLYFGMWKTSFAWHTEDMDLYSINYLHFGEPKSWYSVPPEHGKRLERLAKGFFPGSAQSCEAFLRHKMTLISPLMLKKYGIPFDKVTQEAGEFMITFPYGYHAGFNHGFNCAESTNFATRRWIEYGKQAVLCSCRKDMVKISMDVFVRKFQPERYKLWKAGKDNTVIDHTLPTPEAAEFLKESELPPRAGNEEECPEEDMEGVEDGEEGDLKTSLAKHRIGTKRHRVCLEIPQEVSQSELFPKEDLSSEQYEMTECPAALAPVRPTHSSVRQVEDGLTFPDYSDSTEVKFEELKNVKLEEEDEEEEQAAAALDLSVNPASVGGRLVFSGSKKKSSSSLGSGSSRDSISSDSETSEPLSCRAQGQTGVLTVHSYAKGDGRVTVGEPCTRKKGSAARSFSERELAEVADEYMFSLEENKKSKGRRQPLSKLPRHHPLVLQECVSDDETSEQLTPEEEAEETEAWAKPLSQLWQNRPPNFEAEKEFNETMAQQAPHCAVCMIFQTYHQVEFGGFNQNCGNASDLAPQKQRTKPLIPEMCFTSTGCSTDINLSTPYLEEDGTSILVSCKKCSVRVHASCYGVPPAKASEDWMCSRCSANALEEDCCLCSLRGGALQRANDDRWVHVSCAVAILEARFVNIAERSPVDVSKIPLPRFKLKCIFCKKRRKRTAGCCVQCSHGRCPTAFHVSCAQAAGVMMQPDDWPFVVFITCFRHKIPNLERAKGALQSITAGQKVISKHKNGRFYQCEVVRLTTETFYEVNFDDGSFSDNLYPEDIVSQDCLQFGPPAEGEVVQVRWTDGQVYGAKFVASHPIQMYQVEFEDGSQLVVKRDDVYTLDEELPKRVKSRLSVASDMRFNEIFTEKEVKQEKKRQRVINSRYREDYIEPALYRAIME
Description: Inhibition assays for PHD2 (AlphaScreen) [9], the KDMs (AlphaScreen) [17], BBOX [18] and FTO [19] were carried out as previously described. N-Terminally biotinylated 19-residue human HIF1α CODD peptide ([sequence]) used in the PHD2 inhibition assays was from GL Biochem (Shanghai). IC50 values were calculated using nonlinear regression with normalized dose-response fit using GraphPad Prism 5.

Chain of PHD2 (Q9GZT9 whole entry): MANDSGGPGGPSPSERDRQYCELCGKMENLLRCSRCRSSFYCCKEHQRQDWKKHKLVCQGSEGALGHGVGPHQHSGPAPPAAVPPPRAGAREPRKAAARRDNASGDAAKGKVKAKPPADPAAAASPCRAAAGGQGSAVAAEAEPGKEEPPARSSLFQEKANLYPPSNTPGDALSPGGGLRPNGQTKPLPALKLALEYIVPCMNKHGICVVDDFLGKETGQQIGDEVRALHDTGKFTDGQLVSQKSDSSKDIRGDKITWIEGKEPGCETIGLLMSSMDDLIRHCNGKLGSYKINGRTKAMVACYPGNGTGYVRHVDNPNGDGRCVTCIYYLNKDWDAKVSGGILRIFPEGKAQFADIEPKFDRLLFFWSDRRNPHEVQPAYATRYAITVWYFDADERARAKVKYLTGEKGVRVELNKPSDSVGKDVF

Structure (SMILES)	displacement of [13C]-2OG from PHD2 [1]	displacement of [13C]-CODD from PHD2 [1]	EC50 ([2]; MCF7, 5 h) [µM]	IC50 [3] [µM]	EC50 ([2]; MCF7, MCF-7, 5 h treatment, MSD assay) [µM]
CC(C)(C)OC(=O)c1ccc(-n2[nH]cc(-n3ccnn3)c2=O)nc1 [IOX4, t-Butyl 6-(5-oxo-4-(1H-1,2,3-triazol-1-yl)-2,5-dihydro-1H-pyrazol-1-yl)nicotinate]	displaces 2OG	remained bound	11.7	> 20	
O=C(O)c1ccc(-n2[nH]cc(-n3ccnn3)c2=O)nc1 [compound 1, 6-(5-oxo-4-(1H-1,2,3-triazol-1-yl)-2,5-dihydro-1H-pyrazol-1-yl)pyridine-3-carbocylic acid hydrochloride]				> 20	
O=C(O)CNC(=O)c1c(O)c2ccccc2n(Cc2ccccc2)c1=O [IOX2]	displaces 2OG	not displaced			114

Reference: paper PMC4492579, “Potent and Selective Triazole-Based Inhibitors of the Hypoxia-Inducible Factor Prolyl-Hydroxylases with Activity in the Murine Brain” (PLoS ONE, 2015)
